A value given as a limit tells only on which side of the number the result lay.

T1 sequence (O75116 11-552): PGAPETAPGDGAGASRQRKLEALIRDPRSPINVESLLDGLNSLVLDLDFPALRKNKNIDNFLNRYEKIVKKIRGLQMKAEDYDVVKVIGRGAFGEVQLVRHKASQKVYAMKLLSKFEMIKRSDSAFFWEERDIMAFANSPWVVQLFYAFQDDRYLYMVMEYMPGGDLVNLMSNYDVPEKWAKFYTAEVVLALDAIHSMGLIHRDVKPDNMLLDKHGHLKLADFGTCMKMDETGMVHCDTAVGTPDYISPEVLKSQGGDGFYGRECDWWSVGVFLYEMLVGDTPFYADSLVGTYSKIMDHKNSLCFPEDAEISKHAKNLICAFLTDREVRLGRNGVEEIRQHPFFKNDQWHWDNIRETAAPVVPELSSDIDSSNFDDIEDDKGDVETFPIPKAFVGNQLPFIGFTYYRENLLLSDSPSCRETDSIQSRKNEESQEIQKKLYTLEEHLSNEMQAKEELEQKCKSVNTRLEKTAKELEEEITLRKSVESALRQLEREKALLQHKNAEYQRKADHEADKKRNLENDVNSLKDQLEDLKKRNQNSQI

The test has as its target T1, N-terminal 6His-tagged ROCK2 catalytic domain 11-552 (Homo sapiens, UniProt O75116).
T1 construct: N-terminal 6His-tagged ROCK2 catalytic domain 11-552; 6His (N); purchased Dundee University, UK; host or cells: baculovirus expression system
Description: ROCK2 binding activity: ROCK2 inhibition, ADP-Glo Kinase Assay. Format: biochemical. Particulars: 1.25 nM ROCK2, 100 μM long S6 peptide, 20 μM ATP; 1 hour pre-incubation; read-out: ADP-Glo kinase activity assay ROCK2 Category. The method in brief: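 1.25 nM baculovirus-expressed ROCK2 pre-incubated 1 h with compound (1% DMSO), then 100 μM long S6 peptide and 20 μM ATP added for 1 h; 50 mM HEPES pH 7.5, 10 mM Mg acetate, 1 mM DTT. ADP-Glo luminescence; IC50 from four-parameter logistic fit.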
On the technique in general: ADP-Glo first removes unused ATP, then detects ADP through luciferase.
In the case of `COc1cc(-c2nc(Nc3ccc4[nH]ncc4c3)n(C)n2)ccc1OCC(=O)NC(C)C(F)(F)F` (centres unmarked) [Example 235, 2-[4-[5-(1H-indazol-5-ylamino)-1-methyl-1,2,4-triazol-3-yl]-2-methoxy-phenoxy]-N-(2,2,2-trifluoro-1-methyl-ethyl)acetamide], the IC50 was below 300 nM.

Regarding `CC(C)C(=O)N1CCc2cc(-c3nc(Nc4ccc5[nH]ncc5c4Cl)n(C)n3)ccc2C1` [Example 236, 1-[6-[5-[(4-chloro-1H-indazol-5-yl)amino]-1-methyl-1,2,4-triazol-3-yl]-3,4-dihydro-1H-isoquinolin-2-yl]-2-methyl-propan-1-one], the IC50 was below 300 nM. Take `Cn1nc(-c2ccc3c(c2)CCNC3)nc1Nc1ccc2[nH]ncc2c1Cl` [Example 237, 4-Chloro-N-[2-methyl-5-(1,2,3,4-tetrahydroisoquinolin-6-yl)-1,2,4-triazol-3-yl]-1H-indazol-5-amine]: the IC50 is 300 to 3000 nM. The result for `Cn1nc(-c2ccc3c(c2)CCN(C(=O)C2CC2)C3)nc1Nc1ccc2[nH]ncc2c1Cl` [Example 238] reads below 300 nM. With `Cn1nc(-c2ccc3c(c2)CCN(C(=O)CNCC(F)(F)F)C3)nc1Nc1ccc2[nH]ncc2c1Cl` [Example 239], the IC50 is below 300 nM. The result for `COc1cc(-c2nc(Nc3ccc4[nH]ncc4c3)n(C)n2)ccc1C(=O)NCC(F)(F)F` [Example 240, 4-[5-(1H-indazol-5-ylamino)-1-methyl-1,2,4-triazol-3-yl]-2-methoxy-N-(2,2,2-trifluoroethyl)benzamide] reads below 300 nM; that for `COCCNC(=O)COc1ccc(-c2nc(Nc3ccc4[nH]ncc4c3Cl)n(C)n2)cc1OC` [Example 242, 2-[4-[5-[(4-chloro-1H-indazol-5-yl)amino]-1-methyl-1,2,4-triazol-3-yl]-2-methoxy-phenoxy]-N-(2-methoxyethyl)acetamide], below 300 nM. The result for `CC(=O)N1CCc2cc(-c3nc(Nc4ccc5[nH]ncc5c4C4CC4)n(C)n3)ccc2C1C` (centres unmarked) [Example 248, 1-[6-[5-[(4-cyclopropyl-1H-indazol-5-yl)amino]-1-methyl-1,2,4-triazol-3-yl]-1-methyl-3,4-dihydro-1H-isoquinolin-2-yl]ethanone] reads below 300 nM; that for `CCN1CCc2cc(-c3nc(Nc4ccc5[nH]ncc5c4C4CC4)n(C)n3)ccc2C1C` (centres unmarked) [Example 249, 4-cyclopropyl-N-[5-(2-ethyl-1-methyl-3,4-dihydro-1H-isoquinolin-6-yl)-2-methyl-1,2,4-triazol-3-yl]-1H-indazol-5-amine], 3000 to 10000 nM; that for `CC(C)NC(=O)COc1ccc(-c2nc(Nc3ccc4[nH]ncc4c3)n(C)n2)cc1Cl` [Example 250, 2-[2-chloro-4-[5-(1H-indazol-5-ylamino)-1-methyl-1,2,4-triazol-3-yl]phenoxy]-N-isopropyl-acetamide], below 300 nM. As for `CCNC(=O)c1ccc(-c2nc(Nc3ccc4[nH]ncc4c3C3CC3)n(C)n2)cc1` [Example 251, 4-[5-[(4-cyclopropyl-1H-indazol-5-yl)amino]-1-methyl-1,2,4-triazol-3-yl]-N-ethyl-benzamide], the IC50 is below 300 nM. The result for `CCc1c(Nc2nc(-c3ccc(C(=O)NC4CC4)c(OC)c3)nn2C)ccc2[nH]ncc12` [Example 252, N-cyclopropyl-4-[5-[(4-ethyl-1H-indazol-5-yl)amino]-1-methyl-1,2,4-triazol-3-yl]-2-methoxy-benzamide] reads below 300 nM; that for `CCNC(=O)c1ccc(-c2nc(Nc3ccc4[nH]ncc4c3Cl)n(C)n2)cc1` [Example 253], below 300 nM. On to `CCNC(=O)c1ccc(-c2nc(Nc3ccc4[nH]ncc4c3Cl)n(C)n2)cc1Cl` [Example 254], for which the IC50 fell in the range of 300 to 3000 nM. Then `Cn1nc(-c2ccc(C(=O)NC3(C)CC3)c(Cl)c2)nc1Nc1ccc2[nH]ncc2c1Cl` [Example 255], with 300 to 3000 nM. The result for `Cn1nc(-c2ccc(C(=O)NC(C)(C)C)c(Cl)c2)nc1Nc1ccc2[nH]ncc2c1Cl` [Example 256] reads below 300 nM; that for `Cn1nc(-c2ccc(C(=O)NC(C)(C)C)cc2)nc1Nc1ccc2[nH]ncc2c1Cl` [Example 257], below 300 nM.

(Values after patent US11497751B2, “Modulators of Rho-associated protein kinase” (Redx Pharma PLC, priority 2018, dated 2022).)
